Converted amounts (≈) assume the structure as drawn. “And” between values parts separate entries of the source, which are not always exact repeats. Equal entries are not always repeated. “Also recorded” adds a separate entry of the source. Where two headings read alike, the source gives them in different places.
Experiments:
S. aureus UAMS-1 = assay: Fractional inhibitory concentration (FIC) testing with mupirocin; assay type: cell-based, Staphylococcus aureus; conditions: for MIC: Staphylococcus aureus, UAMS1, compound alone, read-out: Cpd MIC, Dosed-Individually; for FIC Index / Antimicrobial interaction with mupirocin (class by FIC index): compound + mupirocin; for Cpd MIC, Dosed-Combination: compound MIC in combination with mupirocin
Procedure: Fractional inhibitory concentration (FIC) testing was performed, as previously described. Briefly, each well of a 96-well microtiter plate was inoculated with 10^4 CFU of S. aureus UAMS-1 [42]. Each row of the plate was supplemented with two-fold increasing concentrations of mupirocin (0 µg mL^−1 to 2 µg mL^−1) whereas each column contained two-fold increasing concentrations of putative RnpA inhibitor compound (0.03, 0.0625, 0.125, 0.25, 0.5, 1, or 2× MIC). […] The FIC index was defined by the following formula: FIC = (MIC of Drug A in Combination/MIC of Drug A Alone) + (MIC of Drug B in Combination/MIC of Drug B Alone). A synergistic interaction was defined as a FIC value of ≤0.5, an additive interaction as 0.5–1, no interaction as 1–4 and antagonistic interaction as FIC ≥ 4, as described.

[1] = system: RnpA-mediated ptRNA processing; assay: Cellular ptRNA^Tyr accumulation (qRT-PCR); assay type: cell-based, Staphylococcus aureus; conditions: 0.5X MIC for 1 h, Figure 3 right
Procedure: To evaluate the effects of each analog on cellular RnpA-mediated ptRNA processing, S. aureus cells were treated with a sub-inhibitory concentration of each analog (0.5X MIC) and qRT-PCR was used to measure ptRNA^Tyr accumulation, as previously described. […] Compounds RNP0007, 11,13, 14, 15, and 16 had little effect on ptRNA^Tyr levels in the cellular context.
Cellular S. aureus tRNA^Tyr pools were measured as previously described. […] The culture was removed, combined with an equal volume of acetone:ethanol (1:1 v/v) and stored at −80 °C.
Cell suspensions in acetone:ethanol were thawed on ice and centrifuged at 1560× g for 10 min at 4 °C. Acetone:ethanol was decanted, and pellets were left to air-dry for 5 min. Cell pellets were resuspended in 500 µL ice-cold TE buffer (10 mM Tris-HCl, pH 8.0, 1mM EDTA) and transferred to FastPrep Lysing Matrix B tubes (MP Biomedicals, Santa Ana, CA). Mixtures were homogenized at 5 m∙s^−1 for 20 s, rested on ice for 5 min, then homogenized again at 4.5 m∙s^−1 for 20 s in a FastPrep-24 instrument. Cell lysates were centrifuged at 16,200× g for 15 min at 4 °C to remove cell debris. Total bacterial RNA and tRNA^Tyr populations were isolated from the supernatant using Qiagen RNeasy Mini kits and miRNeasy kits, respectively, following the manufacturer’s recommendations (Germantown, MD). For qRT-PCR, 2 µg of RNA substrate was treated with 2 units of DNase I (New England Biolabs, Ipswich, MA, USA) for 1 h at 37 °C and re-purified using Qiagen RNeasy Mini kits, following the manufacturer’s instructions. RNA was measured for concentration and quality using a NanoDrop spectrophotometer. Quantabio (Beverly, MA, USA) qScript cDNA Supermix was used to convert 200 ng of RNA into cDNA, following manufacturer’s instructions, which was subsequently amplified using Quantabio SYBR Green Fast Mix following manufacturer’s instructions. Fluorescence was read on the BioRad (Hercules, CA, USA) CFX 96 Connect Real Time Machine. Transcript levels were compared to the internal control 16S rRNA (ΔΔCt) and plotted as fold change compared to the control. The following primer pairs were used in this study for qRT-PCR: spa forward—[…]; spa reverse—[…]; –15 ptRNA^Tyr forward—[…]; tRNA^Tyr reverse—TGGTG GAGGGGGGCAGATTC; 16S rRNA forward—[…]; 16S rRNA reverse—[…].

S. aureus strain UAMS-1 = assay: Minimum inhibitory concentration (MIC) testing, CLSI broth microdilution; assay type: cell-based, Staphylococcus aureus; conditions: for MIC: Staphylococcus aureus, S. aureus strain UAMS-1, read-out: MIC
Procedure: Staphylococcus aureus strains UAMS-1 is a well-characterized antibiotic susceptible osteomyelitis clinical isolate (Blevins Infect. Immun 2003). For experiments, UAMS-1 was cultured in Mueller Hinton (MH) broth and processed as described below. Escherichia coli strain BL21 (DE3) was cultured in Luria–Bertani (LB) and supplemented with ampicillin (50 µg ml^−1) where indicated.
Minimum inhibitory concentration (MIC) was performed according to the Clinical and Laboratory Standards Institute (CLSI) guidelines. Briefly, individual wells of a 96-well microtiter plate were inoculated with 10^4 colony forming units (CFU) of S. aureus UAMS-1 containing two-fold increasing concentrations (0 µM to 100 µM) of the indicated antibiotic or putative RnpA inhibitor and grown at 37 °C for 16 h in MH broth. The MIC was defined as the lowest concentration of compound in which there was no visible bacterial growth detected by the unaided eye.

S. aureus RnpA = target: T1, S. aureus RnpA (Staphylococcus aureus, UniProt P0A0H5); assay: In vitro RnpA mRNA degradation assay (RNase Alert FRET substrate); assay type: biochemical; conditions: for RNA degradation inhibition in time course study: 50 µM compound, 30 min at 37 °C, Figure 2A; for IC50: in vitro RnpA-mediated RNA degradation, read-out: mRNA IC50
T1 construct: made in house; host or cells: E. coli BL21 (DE3)
T1 sequence (P0A0H5 1-117): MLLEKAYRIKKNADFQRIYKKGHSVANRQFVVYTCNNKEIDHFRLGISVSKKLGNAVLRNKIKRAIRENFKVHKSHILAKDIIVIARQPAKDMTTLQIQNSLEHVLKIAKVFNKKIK
Procedure: His-tagged RnpA was purified as previously described. E. coli BL21 (DE3) cells harboring plasmid pEXP5-nt containing a hexahistidine tag fused to the N-terminus of S.aureus RnpA coding region were grown in LB supplemented with 50 µg mL^−1 ampicillin to OD600 = 0.6 and induced with 1mM isopropyl β-D-1-thiogalactopyranoside (IPTG) for three hours to induce protein expression. […] Cells were mechanically lysed by three passes at 18,000 psi through a French Pressure Cell Press (SLM-Aminco; Pittsford, NY, USA) and cell debris was removed by centrifugation at 17,000× g for 10 min at 4 °C. Supernatants were collected, filtered through a 0.2 micron syringe filter, then loaded onto a 5 mL HisPur cobalt column (ThermoFisher Scientific, Waltham, MA, U.S.A.) using the BioRad Maximizer Duo-Flow Medium Pressure Chromatography System. Protein was eluted using an imidazole gradient (80 mM to 500 mM). Fractions were assessed for RnpA presence and purity via SDS-PAGE analysis, Coomassie staining and Western blotting using an anti-His antibody (Invitrogen; Grand Island, NY, USA).
RnpA-mediated degradation was assessed using the Rnase Alert QC System (Thermofisher Scientific). 20 pmol of His-RnpA was combined with 0.4 μM (final concentration) FRET substrate and either DMSO (negative control) or compound ≤500 µM in 1× Rnase Alert Buffer. Reactions were assembled in 96-well PCR plates (BioRad) and incubated at 37 °C for 30 min in the BioRad CFX 96 Connect Real Time instrument, measuring fluorescence every 2 min at 490 nm excitation/520 nm emission. Percent inhibition of each compound was calculated at the 30 min time-point based on the following formula: (RFU of compound treated RnpA/RFU of DMSO-treated RnpA) × 100.

| SMILES | MIC (S. aureus UAMS-1) | FIC Index (S. aureus UAMS-1) | Cpd MIC, Dosed-Combination (S. aureus UAMS-1) | Cellular ptRNA^Tyr accumulation (in words) [1] | MIC (S. aureus strain UAMS-1; UAMS1) | Inhibition of in vitro RnpA-mediated RNA degradation (in words) (S. aureus RnpA) | RNA degradation inhibition in time course study (S. aureus RnpA) | IC50 (S. aureus RnpA) | MIC (S. aureus strain UAMS-1; UAMS1, 16 h) | Antimicrobial interaction with mupirocin (class by FIC index) (S. aureus UAMS-1) | Fold improvement in anti-staphylococcal activity (MIC) over JR1 (S. aureus strain UAMS-1; compared with JR1) | Fold reduction of antimicrobial activity, six-membered vs seven-membered ring matched pair (S. aureus strain UAMS-1; matched molecular pairs) |
| --- | --- | --- | --- | --- | --- | --- | --- | --- | --- | --- | --- | --- |
| O=C(Nc1cccc(Cl)c1)c1c(NC(=O)C(F)(F)F)sc2c1CCCCC2 [RNP0007] | 0.391 µM | 0.75 | 0.098 µM | little effect | 0.391 µM and 0.16 µg/mL | least effective; also recorded: weakly inhibited | varying degrees of RNA degradation inhibition | 175 µM | – | – | – | – |
| O=C(Nc1cccc(F)c1)c1c(NC(=O)C(F)(F)F)sc2c1CCCCC2 [RNP0008] | 0.391 µM | 1 | 0.196 µM | largest increases | 0.391 µM and 0.16 µg/mL | least effective | varying degrees of RNA degradation inhibition | 245 µM | – | – | – | – |
| O=C(Nc1ccc(F)cc1)c1c(NC(=O)C(F)(F)F)sc2c1CCCCC2 [RNP0009] | 0.78 µM | 0.75 | 0.196 µM | largest increases | 0.78 µM and 0.32 µg/mL | least effective | – | > 250 µM | – | – | – | – |
| Cc1cccc(NC(=O)c2c(NC(=O)C(F)(F)F)sc3c2CCCCC3)c1 [RNP0010] | 3.12 µM | 0.75 | 0.78 µM | largest increases | 3.12 µM and 1.24 µg/mL | least effective | – | 224 µM | 3.21 µM (≈ 1.27 µg/mL) | – | – | – |
| O=C(Nc1cccc(C(F)(F)F)c1)c1c(NC(=O)C(F)(F)F)sc2c1CCCCC2 [RNP0011] | 0.391 µM | 0.75 | 0.098 µM | little effect | 0.391 µM and 0.18 µg/mL | good inhibitory properties | – | 59 µM | – | – | – | – |
| O=C(Nc1ccc(C(F)(F)F)cc1)c1c(NC(=O)C(F)(F)F)sc2c1CCCCC2 [RNP0012] | 0.19 µM | 0.75 | 0.048 µM | largest increases; also recorded: top-performing cellular ptRNA processing inhibitor | 0.19 µM and 0.086 µg/mL | good inhibitory properties | varying degrees of RNA degradation inhibition | 68 µM | – | additive (a value of 0.5 < FIC ≤ 1 indicates additive effect) | 6.6 fold | – |
| O=C(Nc1cccc(F)c1)c1c(NC(=O)C(F)(F)F)sc2c1CCCC2 [RNP0013] | 6.25 µM | 0.75 | 1.56 µM | little effect | 6.25 µM and 2.4 µg/mL | good inhibitory properties | – | 50 µM | – | – | – | – |
| O=C(Nc1ccc(F)cc1)c1c(NC(=O)C(F)(F)F)sc2c1CCCC2 [RNP0014] | 6.25 µM | 0.5 | 1.56 µM | little effect | 6.25 µM and 2.4 µg/mL | strongest inhibitor | varying degrees of RNA degradation inhibition | 6.4 µM | – | synergistic (FIC ≤ 0.5 indicates synergistic activity) | – | – |
| O=C(Nc1ccc(C(F)(F)F)cc1)c1c(NC(=O)C(F)(F)F)sc2c1CCCC2 [RNP0015] | 0.78 µM | 1.5 | 0.78 µM | little effect | 0.78 µM and 0.34 µg/mL | good inhibitory properties | – | 43 µM | – | – | – | fourfold less potent |
| O=C(Nc1cccc(C(F)(F)F)c1)c1c(NC(=O)C(F)(F)F)sc2c1CCCC2 [RNP0016] | 3.12 µM | 1 | 1.56 µM | little effect | 3.12 µM and 1.36 µg/mL | good inhibitory properties | – | 45 µM | – | additive (a value of 0.5 < FIC ≤ 1 indicates additive effect) | – | – |

From article PMC8066339, “Optimization of 2-Acylaminocycloalkylthiophene Derivatives for Activity against Staphylococcus aureus RnpA” (Antibiotics, 2021)
